Patent US20090054392A1, “NAPHTHYLPYRIMIDINE, NAPHTHYLPYRAZINE AND NAPHTHYLPYRIDAZINE ANALOGS AND THEIR USE AS AGONISTS OF THE WNT-BETA-CATENIN CELLULAR MESSAGING SYSTEM” (Wyeth, priority 2007, published 2009)

Tested on: Dkk1-LRP5-TCF-Luciferase
Assay: Functional Dkk1-LRP5-TCF-Luciferase Assay in U2OS Cells
Details: for fold induction at 2 µM / fold induction at 20 µM / EC50: Homo sapiens, U2OS; for fold induction at 2 µM: read-out: B = TCF ACTIVITY/DMSO CONTROL Fold induction @ 2.0 uM, 2.0 uM compound; for fold induction at 20 µM: read-out: C = TCF ACTIVITY/DMSO CONTROL Fold induction @ 20.0 uM, 20.0 uM compound; for A = MAX FOLD Induction/DMSO CONTROL: maximum fold induction over DMSO control

Row | Structure (SMILES) | fold induction at 2 µM | fold induction at 20 µM | EC50 | A = MAX FOLD Induction/DMSO CONTROL
1 | O=C(NCCC1CCN(c2nccc(-c3ccc4ccccc4c3)n2)CC1)OCc1ccccc1 [benzyl (2-{1-[4-(2-naphthyl)pyrimidin-2-yl]piperidin-4-yl}ethyl)carbamate] | 0.86 | 1.49 |  | 
2 | NC(=O)N1CC[C@@H](Nc2nccc(-c3ccc4ccccc4c3)n2)C1 [(3R)-3-{[4-(2-naphthyl)pyrimidin-2-yl]amino}pyrrolidine-1-carboxamide] |  | 2.42 | 8.71 µM | 5.295 fold
3 | O[C@H]1CCN(CC2CCN(c3nccc(-c4ccc5ccccc5c4)n3)C2)C1 (stereo partly drawn) [(3S)-1-({1-[4-(2-naphthyl)pyrimidin-2-yl]pyrrolidin-3-yl}methyl)pyrrolidin-3-ol] | 3.2 |  |  | 
4 | CC(C)(C)OC(=O)NCC1CCCN(c2nccc(-c3ccc4ccccc4c3)n2)C1 (stereo not shown) [tert-butyl ({1-[4-(2-naphthyl)pyrimidin-2-yl]piperidin-3-yl}methyl)carbamate] | 0.91 | 1.94 |  | 
5 | CN(c1nccc(-c2ccc3ccccc3c2)n1)C1CCNCC1 [N-methyl-4-(2-naphthyl)-N-piperidin-4-ylpyrimidin-2-amine] | 2.65 | 1.35 | 1.8 µM | 2.320 fold
6 | CN(C)S(=O)(=O)N1CCC(CNc2nccc(-c3ccc4ccccc4c3)n2)CC1 [N,N-dimethyl-4-({[4-(2-naphthyl)pyrimidin-2-yl]amino}methyl)piperidine-1-sulfonamide] |  | 1.21 |  | 
7 | c1ccc2cc(-c3ccnc(N4CCC(CN5CCCCC5)C4)n3)ccc2c1 (stereo not shown) [4-(2-naphthyl)-2-[3-(piperidin-1-ylmethyl)pyrrolidin-1-yl]pyrimidine] | 1.66 | 0.01 |  | 
8 | N[C@@H](CO)C1CCN(c2nccc(-c3ccc4ccccc4c3)n2)CC1 [(2R)-2-amino-2-{1-[4-(2-naphthyl)pyrimidin-2-yl]piperidin-4-yl}ethanol] | 2.96 |  |  | 1.660 fold
9 | CO[C@@H]1CCN(c2nccc(-c3ccc4ccccc4c3)n2)C1 [2-[(3R)-3-methoxypyrrolidin-1-yl]-4-(2-naphthyl)pyrimidine] | 1.36 | 3.1 | 0.659 µM | 1.990 fold
10 | CS(=O)(=O)OCCC1CCN(c2nccc(-c3ccc4ccccc4c3)n2)CC1 [2-{1-[4-(2-naphthyl)pyrimidin-2-yl]piperidin-4-yl}ethyl methanesulfonate] | 1.02 | 1.18 |  | 
11 | COC(=O)NCCC1CCN(c2nccc(-c3ccc4ccccc4c3)n2)CC1 [methyl (2-{1-[4-(2-naphthyl)pyrimidin-2-yl]piperidin-4-yl}ethyl)carbamate] | 1.39 | 0.89 |  | 
12 | NC(=O)N[C@H]1CCN(c2nccc(-c3ccc4ccccc4c3)n2)C1 [N-{(3S)-1-[4-(2-naphthyl)pyrimidin-2-yl]pyrrolidin-3-yl}urea] |  | 1.47 |  | 
13 | O=C(NCCC1CCN(c2nccc(-c3ccc4ccccc4c3)n2)CC1)Nc1ccccc1 [N-(2-{1-[4-(2-naphthyl)pyrimidin-2-yl]piperidin-4-yl}ethyl)-N′-phenylurea] | 1 | 1.5 |  | 
14 | CCN(CCO)[C@@H]1CCN(c2nccc(-c3ccc4ccccc4c3)n2)C1 [2-(ethyl{(3R)-1-[4-(2-naphthyl)pyrimidin-2-yl]pyrrolidin-3-yl}amino)ethanol] | 1.8 | 5.83 |  | 3.430 fold
15 | c1cncc(CCNc2nccc(-c3ccc4ccccc4c3)n2)c1 [4-(2-naphthyl)-N-(2-pyridin-3-ylethyl)pyrimidin-2-amine] | 1.15 | 1.04 |  | 
16 | c1ccc2cc(-c3ccnc(N4CCCCCC4)n3)ccc2c1 [1-[4-(2-naphthyl)pyrimidin-2-yl]azepane] | 1.54 |  |  | 
